Source: US10092584B2 (Achillion Pharmaceuticals, Inc., priority 2015, dated 2018)
Like-named read-outs stand apart in the source and are kept apart here.

Target: T1, Human Factor D (Homo sapiens, UniProt P00746)
T1 construct: purified from human serum; purchased Complement Technology, Inc; host or cells: human serum
Experiment: Human Factor D assay (Example 8)
Type: biochemical
Description: Human Factor D (purified from human serum, Complement Technology, Inc.) at 80 nM final concentration was incubated with test compound at various concentrations for 5 minutes at room temperature in 50 mM Tris, 1M NaCl, pH 7.5. A synthetic substrate Z-L-Lys-SBzl and DTNB (Ellman's reagent) are added to final concentrations of 100 μM each. […] IC50 values are calculated by nonlinear regression of complement Factor D reaction rates as a function of test compound concentration.

[1] = Table 1, Human Factor D 80 nM, substrate Z-L-Lys-SBzl, read-out: IC50

T1 sequence (P00746 26-253): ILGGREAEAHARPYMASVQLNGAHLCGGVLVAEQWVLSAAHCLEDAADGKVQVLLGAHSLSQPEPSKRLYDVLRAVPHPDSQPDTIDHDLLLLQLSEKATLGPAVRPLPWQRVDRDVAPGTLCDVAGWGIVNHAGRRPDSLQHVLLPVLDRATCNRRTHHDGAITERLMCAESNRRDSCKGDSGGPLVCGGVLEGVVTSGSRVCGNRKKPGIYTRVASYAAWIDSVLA

| IC50 [1] [µM] | SMILES | IC50 [µM] |
| --- | --- | --- |
| – | CC(=O)c1cn(CC(=O)N2[C@H](C(=O)NCc3cccc(Cl)c3F)C[C@@H]3CCCC[C@@H]32)c2ccccc12 [Compound 1, (2S,3aS,7aS)-1-(2-(3-acetyl-1H-indol-1-yl)acetyl)-N-(3-chloro-2-fluorobenzyl)octa-hydro-1H-indole-2-carboxamide] | < 1 |
| > 10 | CC(=O)n1cc(NC(=O)[C@@H]2C[C@@H](F)CN2C(=O)NCc2cccc(Cl)c2F)c2ccccc21 [Compound 3, (2S,4R)-N2-(1-acetyl-1H-indol-3-yl)-N1-(3-chloro-2-fluorobenzyl)-4-fluoropyrrolidine-1,2-dicarboxamide] | – |
| > 10 | CC(=O)n1cc(NC(=O)[C@@H]2C[C@H](F)CN2C(=O)NCc2cccc(Cl)c2F)c2ccccc21 [Compound 4, (2S,4S)-N2-(1-acetyl-1H-indol-3-yl)-N1-(3-chloro-2-fluorobenzyl)-4-fluoropyrrolidine-1,2-dicarboxamide] | – |
| > 10 | CC(=O)n1cc(NC(=O)[C@@H]2C[C@H](F)CN2C(=O)NCc2ccccc2)c2ccccc21 [Compound 5, (2S,4S)-N2-(1-acetyl-1H-indol-3-yl)-N1-benzyl-4-fluoropyrrolidine-1,2-dicarboxamide] | – |
| > 10 | NC(=O)n1cc(NC(=O)N2C[C@H](F)C[C@H]2C(=O)NS(=O)(=O)c2cccc(Cl)c2F)c2ccccc21 [Compound 6, (2S,4R)-N1-(1-carbamoyl-1H-indol-3-yl)-N2-(3-chloro-2-fluorophenylsulfonyl)-4-fluoropyrrolidine-1,2-dicarboxamide] | – |
| > 10 | CC(=O)n1cc(NC(=O)N2C[C@H](F)C[C@H]2C(=O)NS(=O)(=O)c2cccc(Cl)c2F)c2ccccc21 [Compound 7, (2S,4R)-N1-(1-acetyl-1H-indol-3-yl)-N2-(3-chloro-2-fluorophenylsulfonyl)-4-fluoropyrrolidine-1,2-dicarboxamide] | – |
| > 10 | CC(=O)n1cc(NC(=O)[C@H]2CC(F)(F)CN2C(=O)NCc2cccc(Cl)c2F)c2ccccc21 [Compound 8, (R)-N2-(1-acetyl-1H-indol-3-yl)-N1-(3-chloro-2-fluorobenzyl)-4,4-difluoropyrrolidine-1,2-dicarboxamide] | – |
| > 10 | CC(=O)n1cc(NC(=O)[C@H]2CCCN2C(=O)NCc2cccc(Cl)c2F)c2ccccc21 [Compound 9, (R)-N2-(1-acetyl-1H-indol-3-yl)-N1-(3-chloro-2-fluorobenzyl)pyrroli-dine-1,2-dicarboxamide] | – |
| > 10 | CC(=O)c1cn(CC(=O)N2C[C@H](F)C[C@H]2c2ncc(-c3cccc(Cl)c3)[nH]2)c2ccccc12 [Compound 11, 2-(3-acetyl-1H-indol-1-yl)-1-((2S,4R)-2-(5-(3-chlorophenyl)-1H-imidazol-2-yl)-4-fluoropyrrolidin-1-yl)ethanone] | – |
| > 10 | CC(=O)c1cn(CC(=O)N2C[C@H](F)C[C@H]2c2nc3cc(Cl)ccc3[nH]2)c2ccccc12 [Compound 15] | – |
| > 10 | CC(=O)n1cc(NC(=O)[C@H]2CCCN2C(=O)Nc2cccc(OC(F)(F)F)c2F)c2ccccc21 [Compound 16, (R)-N2-(1-acetyl-1H-indol-3-yl)-N1-(2-fluoro-3-(trifluoromethoxy)phenyl)pyrrolidine-1,2-dicarboxamide] | – |
| > 10 | CC(=O)n1cc(NC(=O)[C@H]2CC(F)(F)CN2C(=O)Cc2cccc(Cl)c2F)c2ccccc21 [Compound 17, (R)-N-(1-acetyl-1H-indol-3-yl)-1-(2-(3-chloro-2-fluorophenyl)acetyl)-4,4-difluoropyrrolidine-2-carboxamide] | – |
| < 1 | CC(=O)c1cn(CC(=O)N2CC[C@@H](OCC3CC3)[C@H]2C(=O)NCc2cccc(Cl)c2F)c2ccccc12 [Compound 18, (2S,3R)-1-(2-(3-acetyl-1H-indol-1-yl)acetyl)-N-(3-chloro-2-fluorobenzyl)-3-(cyclopropylmethoxy) pyrrolidine-2-carboxamide] | – |
| > 10 | COc1ccc2c(O[C@@H]3C[C@@H](C(=O)NCc4cccc(Cl)c4F)N(C(=O)Nc4cn(C(C)=O)c5ccccc45)C3)cc(-c3ccccc3)nc2c1 [Compound 19, (2S,4R)-N1-(1-acetyl-1H-indol-3-yl)-N2-(3-chloro-2-fluorobenzyl)-4-(7-methoxy-2-phenylquinolin-4-yloxy)pyrrolidine-1,2-dicarboxamide] | – |
| > 10 | CC(=O)n1cc(NC(=O)Nc2cn(C(C)=O)c3ccccc23)c2ccccc21 [Compound 20, 1,3-bis(1-acetyl-1H-indol-3-yl)urea] | – |
| – | CC(=O)c1cn(CC(=O)N2C[C@H](F)[C@@H](OCC3CC3)[C@H]2C(=O)NCc2cccc(Cl)c2F)c2cc(O)ccc12 [Compound 21, (2S,3S,4S)-1-(2-(3-acetyl-6-hydroxy-1H-indol-1-yl)acetyl)-N-(3-chloro-2-fluorobenzyl)-3-(cyclopropylmethoxy)-4-fluoropyrrolidine-2-carboxamide] | < 1 |
| – | O=C(c1cn(CC(=O)N2[C@@H]3C[C@@H]3C[C@H]2C(=O)NCc2cccc(Cl)c2F)c2ccccc12)C1CC1 [Compound 22, (1R,3S,5R)-N-(3-chloro-2-fluorobenzyl)-2-(2-(3-(cyclopropanecarbonyl)-1H-indol-1-yl)acetyl)-2-azabicyclo[3.1.0] hexane-3-carboxamide] | < 1 |
| < 1 | O=C(c1cn(CC(=O)N2C[C@H](F)C[C@H]2C(=O)NCc2cccc(Cl)c2F)c2ccccc12)C1CC1 [Compound 24, (2S,4R)-N-(3-chloro-2-fluorobenzyl)-1-(2-(3-(cyclopropanecarbonyl)-1H-indol-1-yl)acetyl)-4-fluoropyrrolidine-2-carboxamide] | – |
| – | CC(=O)c1cn(CC(=O)N2CC(F)C(OCC3CC3)[C@H]2C(=O)NCc2cccc(Cl)c2F)c2cc(O)ccc12 (stereo partly drawn) [Compound 25, (2S)-1-(2-(3-acetyl-6-hydroxy-1H-indol-1-yl)acetyl)-N-(3-chloro-2-fluorobenzyl)-3-(cyclopropylmethoxy)-4-fluoropyrrolidine-2-carboxamide] | < 1 |
| > 10 | NC(=O)N1CC(NC(=O)[C@@H]2CCC[C@H]2C(=O)NCc2cccc(Cl)c2F)c2ccccc21 (stereo partly drawn) [Compound 26, (1R,2R)-N1-(1-carbamoylindolin-3-yl)-N2-(3-chloro-2-fluorobenzyl)cyclo-pentane-1,2-dicarboxamide] | – |
| > 10 | CC(=O)c1cn(CC(=O)N2C[C@H](F)C[C@H]2Cn2cc(-c3ccc(F)cc3)nn2)c2ccccc12 [Compound 27, 2-(3-acetyl-1H-indol-1-yl)-1-((2S,4R)-4-fluoro-2-((4-(4-fluorophenyl)-1H-1,2,3-triazol-1-yl)methyl)pyrrolidin-1-yl)ethanone] | – |
| > 10 | NC(=O)n1cc(NC(=O)N2C[C@H](F)C[C@H]2Cn2cc(-c3ccc(F)cc3)nn2)c2ccccc21 [Compound 28, 3-((2S,4R)-4-fluoro-2-((4-(4-fluorophenyl)-1H-1,2,3-triazol-1-yl)methyl)pyrrolidine-1-carboxamido)-1H-indole-1-carboxamide] | – |
| – | COc1ccc2c(O[C@@H]3C[C@@H](C(=O)NCc4cccc(Cl)c4F)N(C(=O)Cn4cc(C(C)=O)c5ccccc54)C3)cc(-c3ccccc3)nc2c1 [Compound 29, (2S,4R)-1-(2-(3-acetyl-1H-indol-1-yl)acetyl)-N-(3-chloro-2-fluorobenzyl)-4-(7-methoxy-2-phenylquinolin-4-yloxy)pyrrolidine-2-carboxamide] | > 10 |
